Earlier results in patent US6348502B1, “Formulations for the treatment of gastro-oesophageal reflux” (Reckitt & Colman Products Limited, priority 1998, dated 2002).

Experiments:
[1] = test system: capsaicin-sensitive neurones; conditions: rats; stimulation of capsaicin-sensitive neurones
[2] = test system: topical injury by noxious agents such as ethanol; conditions: white rabbits, administered at the gastro-oesophageal junction via cannulae
gastric acid secretion = conditions: rats
[3] = test system: acetic-acid induced gastric ulcers

COc1cc(CNC(=O)CCCC/C=C/C(C)C)ccc1O [capsaicin, (E)-(N)-[(4-hydroxy-3-methoxphenyl)-methyl]-8-methyl-6-nonenamide]
duodenal bicarbonate secretion [1]: increase duodenal bicarbonate secretion | mucosal protection against topical injury [2]: provides mucosal protection | effect on gastric acid secretion (gastric acid secretion): no effect | protection of the gastric mucosa against experimental injury ([3]; acetic-acid induced gastric ulceration in rats): protects the gastric mucosa against experimental injury | healing of acetic-acid induced gastric ulcers ([3]; rats, introduced directly into an ex vivo chamber): promotes the healing | healing of acetic-acid induced gastric ulcers after prior administration of cimetidine ([3]; rats, prior administration of cimetidine): blunted
